Experimental data from PubChem BioAssay (NCI).
Where “and” joins values, the source holds several entries; their conditions need not be identical. Equal entries are not always repeated.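 Growth conditions: 96-well plates. Treatment: test compound, 48 hours, 5 concentrations. Analysis: linear interpolation between bracketing concentrations; unreached endpoints set to highest concentration. At the GI50, growth is halved. TGI marks complete inhibition of growth.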

Test system: MALME-3M melanoma
Assay: NCI-60 cell line screen, 48 h

| Compound | GI50 [µM] | TGI [µM] |
| --- | --- | --- |
| CCSc1nc(N=Cc2ccccc2O)c2cn[nH]c2n1 | 0.137 | 34.7 |
| O=C(CNc1ccc(Cl)cc1Cl)Nn1c(-c2ccccc2)nc2ccccc2c1=O | – | 34.6 |
| CSC[C@H](NC(=O)COc1cccc2cnccc12)C(=O)NC(Cc1ccccc1)C(O)C(=O)N1CSC[C@H]1C(=O)NC(C)(C)C (some centres not stated) | – | > 100 |
| C[C@H](CCOc1cccc(CC(=O)O)c1)N(Cc1cccc(C(F)(F)F)c1Cl)CC(c1ccccc1)c1ccccc1 | 7.39 | 21.7 |
| O=[N+]([O-])c1cccnc1N=Nc1c(O)[nH]c2ccccc12 | – | 56.3 |
| CNc1cc2oc(=O)cc(C)c2cc1C | – | > 100 |
| O=C1C=C(Nc2ccc(Cl)cc2C(=O)c2ccccc2)c2ccccc2C1=O | – | > 100 |
| CCN(CCNS(C)(=O)=O)c1ccc(N)c(C)c1 | 10.2 | 24.4 |
| CC1=C(C(=O)Nc2ccccc2)C(c2ccc(Cl)c(Cl)c2)C(C(=O)Nc2ccccc2)=C(C)N1 | – | 26.7 |
| COc1ccc(NC(=O)CSc2nnc(-c3ccc(NC(C)=O)cc3)o2)cc1 | – | 40.8 |
| NCCCn1c2c(c3ccc([N+](=O)[O-])cc3c1=O)C(=O)c1cc(I)ccc1-2 | 0.228 | 1.86 |

Test system: MOLT-4 leukemia
Assay: NCI-60 cell line screen, 48 h

| Compound | GI50 [µM] | TGI |
| --- | --- | --- |
| Nc1c(C(=O)Nc2ccccn2)sc2nc3c(cc12)C(=O)CCC3 | > 100 | > 100 µM |
| Cc1nc2c(Br)cc(Br)cc2c(=O)n1-c1nnc(-c2cccc(Cl)c2Cl)c(N)n1 | 15.3 | 62.1 µM |
| COc1ccc2c(=O)oc3c(OC)cc(CCN(C)C)c4c(=O)oc1c2c34 | – | 26.8 µM and 17.1 µM |
| COc1ccc(Cl)cc1NC(=O)c1ccc(NC2=C(Cl)C(=O)N(Cc3ccccc3)C2=O)cc1 | 1.43 | 13.4 µM |
| Cc1cccc(NC2=C(Cl)C(=O)c3nc(C)ccc3C2=O)c1 | 2.2 | > 100 µM |
| O=Cc1cc2c(cc1-c1cc3c(cc1C=O)OCO3)OCO2 | – | > 100 µM |
| C/C(=N\NC(N)=O)c1sc(-c2nc(C)c(/C(C)=N/NC(N)=O)s2)nc1C | – | > 100 µM |
| CN(C)CCNC(=O)Cc1ccccc1Nc1c(Cl)cccc1Cl | – | 36.7 µM |
| C[N+](C)(C)CC(=O)N/N=C(/Cc1cc(=O)oc2cc(O)ccc12)C(=O)Nc1ccc(Cl)cc1 | – | > 100 µM |
| COC(=O)c1c2c(c(C)[n+]([O-])c1C)C(=O)C(NCc1ccc(Br)cc1)=CC2=O | 1.97 | 4.74 µM |
| O=S(=O)(OI(OI(OS(=O)(=O)C(F)(F)F)c1ccccc1)c1ccccc1)C(F)(F)F | – | > 100 µM |
| FC(F)(F)c1ccc2nc(NCc3ccccc3)c(-c3ccccc3)nc2c1 | – | 72.5 µM |
| C=C(C)[C@@H]1CC[C@]2(CN)CC[C@]3(C)[C@H](CC[C@@H]4[C@@]5(C)CCCNC(C)(C)[C@@H]5CC[C@]43C)[C@@H]12 | 1.93 | 4.47 µM |
| CCCN(CCC)c1c([N+](=O)[O-])cc(C(=O)N(CC)CC)cc1[N+](=O)[O-] | – | 50 µM |
| C=C(CN(C)Cc1ccccc1)c1ccc(NC(=O)c2ccc(C(=C)CN(C)Cc3ccccc3)cc2)cc1 | 49.8 | > 100 µM |
| CCOc1ccc(OCC(=O)O)c2c1CCCC2=O | – | > 100 µM |
| CCCCCCCC(=O)OCC1OC(n2cc(F)c(=O)[nH]c2=O)C(N)C(OC(=O)CCCCCCC)C1O (configuration not stated) | – | 33.6 µM |
| CCOc1ccc(NC(=O)CC2SC(=Nc3ccc(C)cc3C)NC2=O)cc1 (configuration not stated) | – | 65 µM |
| CCSc1nc(N=Cc2ccccc2O)c2cn[nH]c2n1 | 52.8 | > 100 µM |
| O=C(CNc1ccc(Cl)cc1Cl)Nn1c(-c2ccccc2)nc2ccccc2c1=O | – | 43.3 µM |
| CSC[C@H](NC(=O)COc1cccc2cnccc12)C(=O)NC(Cc1ccccc1)C(O)C(=O)N1CSC[C@H]1C(=O)NC(C)(C)C (some centres not stated) | – | > 100 µM |
| C[C@H](CCOc1cccc(CC(=O)O)c1)N(Cc1cccc(C(F)(F)F)c1Cl)CC(c1ccccc1)c1ccccc1 | 4.95 | 23.1 µM |
| O=[N+]([O-])c1cccnc1N=Nc1c(O)[nH]c2ccccc12 | – | > 100 µM |
| CNc1cc2oc(=O)cc(C)c2cc1C | – | > 100 µM |
| O=C1C=C(Nc2ccc(Cl)cc2C(=O)c2ccccc2)c2ccccc2C1=O | – | > 100 µM |
| CCN(CCNS(C)(=O)=O)c1ccc(N)c(C)c1 | 23.1 | 59.6 µM |
| CC1=C(C(=O)Nc2ccccc2)C(c2ccc(Cl)c(Cl)c2)C(C(=O)Nc2ccccc2)=C(C)N1 | – | 3.04 µM |
| COc1ccc(NC(=O)CSc2nnc(-c3ccc(NC(C)=O)cc3)o2)cc1 | – | 40.9 µM |
| NCCCn1c2c(c3ccc([N+](=O)[O-])cc3c1=O)C(=O)c1cc(I)ccc1-2 | < 0.01 | 0.251 µM |

Test system: NCI-H23 lung
Assay: NCI-60 cell line screen, 48 h

| Compound | GI50 | TGI |
| --- | --- | --- |
| Nc1c(C(=O)Nc2ccccn2)sc2nc3c(cc12)C(=O)CCC3 | 3.29 µM | > 100 µM |
| Cc1nc2c(Br)cc(Br)cc2c(=O)n1-c1nnc(-c2cccc(Cl)c2Cl)c(N)n1 | 23.4 µM | 65.5 µM |
| N#CC(I)CS(=O)(=O)c1ccccc1 (configuration not stated) | 16.7 µM | 31.7 µM |
| COc1ccc2c(=O)oc3c(OC)cc(CCN(C)C)c4c(=O)oc1c2c34 | – | 32.7 µM and 17.5 µM |
| COc1ccc(Cl)cc1NC(=O)c1ccc(NC2=C(Cl)C(=O)N(Cc3ccccc3)C2=O)cc1 | 55.8 µM | > 100 µM |
| Cc1nc2sccn2c1-c1nc2sccn2c1/C=C1/C(=O)Nc2ccccc21 | 9.44 µM | > 100 µM |
| Cc1cccc(NC2=C(Cl)C(=O)c3nc(C)ccc3C2=O)c1 | 0.512 µM | 2.13 µM |
| O=Cc1cc2c(cc1-c1cc3c(cc1C=O)OCO3)OCO2 | – | > 100 µM |
| C/C(=N\NC(N)=O)c1sc(-c2nc(C)c(/C(C)=N/NC(N)=O)s2)nc1C | – | > 100 µM |
| CN(C)CCNC(=O)Cc1ccccc1Nc1c(Cl)cccc1Cl | – | 33.4 µM |
| CCCCCCCCSC1=C(Cl)C(=O)C(OC)=C(OC)C1=O | – | 31.5 µM |
| C[N+](C)(C)CC(=O)N/N=C(/Cc1cc(=O)oc2cc(O)ccc12)C(=O)Nc1ccc(Cl)cc1 | – | > 100 µM |
| COC(=O)c1c2c(c(C)[n+]([O-])c1C)C(=O)C(NCc1ccc(Br)cc1)=CC2=O | 1.57 µM | 4.68 µM |
| COc1cccc2c1O/C(=C\c1ccc([N+](=O)[O-])s1)C2=O | 3.15 µM | > 100 µM |
| FC(F)(F)c1ccc2nc(NCc3ccccc3)c(-c3ccccc3)nc2c1 | – | > 100 µM |
| COc1cc(C[P+](c2ccccc2)(c2ccccc2)c2ccccc2)cc(OC)c1OC | – | > 100 µM |
| CC(C)=CCC1=C(O)c2ccccc2C(=O)C1=O | > 100 µM and 23.5 µM and 33.6 µM | > 100 µM and 69.7 µM |

| Compound | GI50 | TGI |
| --- | --- | --- |
| C=C(C)[C@@H]1CC[C@]2(CN)CC[C@]3(C)[C@H](CC[C@@H]4[C@@]5(C)CCCNC(C)(C)[C@@H]5CC[C@]43C)[C@@H]12 | 1.7 µM | 3.3 µM |
| CCCN(CCC)c1c([N+](=O)[O-])cc(C(=O)N(CC)CC)cc1[N+](=O)[O-] | – | 40.8 µM |
| C=C(CN(C)Cc1ccccc1)c1ccc(NC(=O)c2ccc(C(=C)CN(C)Cc3ccccc3)cc2)cc1 | 49.4 µM | > 100 µM |
| CN1Nc2ccccc2CC1=O | – | > 100 µM |
| CCOc1ccc(OCC(=O)O)c2c1CCCC2=O | – | > 100 µM |
| CCCCCCCC(=O)OCC1OC(n2cc(F)c(=O)[nH]c2=O)C(N)C(OC(=O)CCCCCCC)C1O (configuration not stated) | – | 35.9 µM |
| CCOc1ccc(NC(=O)CC2SC(=Nc3ccc(C)cc3C)NC2=O)cc1 (configuration not stated) | – | > 100 µM |
| CCSc1nc(N=Cc2ccccc2O)c2cn[nH]c2n1 | 15.2 µM | 34.9 µM |
| O=C(CNc1ccc(Cl)cc1Cl)Nn1c(-c2ccccc2)nc2ccccc2c1=O | – | 29.8 µM |
| CSC[C@H](NC(=O)COc1cccc2cnccc12)C(=O)NC(Cc1ccccc1)C(O)C(=O)N1CSC[C@H]1C(=O)NC(C)(C)C (some centres not stated) | – | > 100 µM |
| C[C@H](CCOc1cccc(CC(=O)O)c1)N(Cc1cccc(C(F)(F)F)c1Cl)CC(c1ccccc1)c1ccccc1 | 4.5 µM | 19.2 µM |
| CNc1cc2oc(=O)cc(C)c2cc1C | – | > 100 µM |
| O=C1C=C(Nc2ccc(Cl)cc2C(=O)c2ccccc2)c2ccccc2C1=O | – | > 100 µM |
| CC1=C(C(=O)Nc2ccccc2)C(c2ccc(Cl)c(Cl)c2)C(C(=O)Nc2ccccc2)=C(C)N1 | – | 27 µM |
| COc1ccc(NC(=O)CSc2nnc(-c3ccc(NC(C)=O)cc3)o2)cc1 | – | 23.2 µM |
| NCCCn1c2c(c3ccc([N+](=O)[O-])cc3c1=O)C(=O)c1cc(I)ccc1-2 | 0.0343 µM | 1.22 µM |

Test system: SK-MEL-28 melanoma
Assay: NCI-60 cell line screen, 48 h

| Compound | GI50 | TGI |
| --- | --- | --- |
| Nc1c(C(=O)Nc2ccccn2)sc2nc3c(cc12)C(=O)CCC3 | 13.4 µM | > 100 µM |
| Cc1nc2c(Br)cc(Br)cc2c(=O)n1-c1nnc(-c2cccc(Cl)c2Cl)c(N)n1 | 65.4 µM | > 100 µM |
| N#CC(I)CS(=O)(=O)c1ccccc1 (configuration not stated) | 16.6 µM | 30.7 µM |
| COc1ccc2c(=O)oc3c(OC)cc(CCN(C)C)c4c(=O)oc1c2c34 | 4.25 µM and 1.01 µM | 15.6 µM and 2.2 µM |
| COc1ccc(Cl)cc1NC(=O)c1ccc(NC2=C(Cl)C(=O)N(Cc3ccccc3)C2=O)cc1 | > 100 µM | > 100 µM |
